Measured values reported in patent US20080260720A1, “Systems and Methods for Inhibiting Metastasis” (priority 2004, published 2008).

Assays:
Format in all cases: cell-based
[1] = tested on: MB-MDA-435 breast cancer cells expressing E-cadherin; test: Wound-filling (cell migration) assay, G12-stimulated cell escape; settings: MB-MDA-435 cells with E-cadherin and mutationally-activated Gα12; free-migrating cells 39 h after wounding
Protocol: To determine whether G12 proteins could influence cadherin-mediated suppression of cell migration, wound-filling assays using MB-MDA-435 breast cancer cells expressing E-cadherin were conducted. This system is believed to mimic the escape of potentially metastatic cells from the primary tumor. When a monolayer of cells was wounded by scraping, MB-MDA-435 cells lacking E-cadherin (435-puro) frequently broke free from the advancing “wall” of cells and migrated into the wound area as lone or “free migrating” cells.
Wound-filling assays were performed using MB-MDA-435 cells harboring E-cadherin (435-E-cad) or a control plasmid (435-puro), that were infected 40 h earlier with recombinant adenoviruses expressing either mutationally-activated Gα12 (12^QL) or mutationally-activated Gαi2 (control). Cells were visualized by fluorescence microscopy for GFP expression (indicative of successful adenovirus infection). Cells were photographed at time of initial wounding, performed by scraping cell monolayers with a pipette tip and marling the wounded areas for orientation. Marked areas were re-photographed 39 h after wounding (lower panels). […] Data from 5 randomly selected view fields are presented as mean ±S.E. for each condition. E-cadherin lacking the G12-interacting region fails to suppress cell migration. […]

MB-MDA-231 cell line = test: Matrigel invasion assay, MB-MDA-231; settings: 50 nM thrombin, 24 hrs, MB-MDA-231 cells, Cyquant quantification
Protocol: (§1) To examine the role of G12/13 in breast cancer invasion, the Matrigel (BD biosciences) invasion assay was used. In this assay, transwell migration chambers are coated with Matrigel, an artificial extracellular matrix believed to closely resemble basal lamina in structure and content. Cells are then plated on top of this matrix and allowed to invade the matrigel and migrate to the underside of the membrane. The cells that reach the underside of the membrane are then quantified as a measure of invasiveness. This system serves as a model for primary tumor invasion, as the matrix mimics the microenvironment through which the cancer cells must pass in order to metastasize.
(§2) MB-MDA-231 and MCF-7 cells were plated on top of a Matrigel (BD Biosciences) coated polycarbonate filter (8.0 μM pore). The filter was transferred to a chamber containing 0.1% BSA-DMEM and the cells were allowed to adhere for 1 hr. The cells were then stimulated with 50 nM thrombin. After 24 hrs, the cells were detached from the underside of the filter and quantified using the Cyquant (Molecular Probes) cell enmieration kit. […] Using retrovirus, stable MB-MDA-231 cell lines expressing p115RGS, RGS2 (see text) or the appropriate vector control were generated. Invasion assays were then preformed as in (a) using these cells.

MCF-7 cell line = test: Matrigel invasion assay, MCF-7; settings: 50 nM thrombin, 24 hrs, MCF-7 cells, Cyquant quantification
Protocol: as §1, §2

| Molecule | effect on the G12-stimulated cell escape [1] | invasion through Matrigel (MB-MDA-231 cell line) | invasion through Matrigel (MCF-7 cell line) |
| --- | --- | --- | --- |
| C[C@@H](N)[C@H]1CC[C@H](C(=O)Nc2ccncc2)CC1 [Y27632] | no effect |  |  |
| thrombin |  | stimulates invasion | not |
